According to patent US11708348B2, “Protease inhibitors for treatment of coronavirus infections” (The Scripps Research Institute, priority 2021, dated 2023):
Read-outs that look alike come from different tables or passages of the source.

Test system: SARS-CoV-2 strain USA-WA1/2020
Experiment: microbe, parasite or virus in culture
Type: cell-based
Details: Severe acute respiratory syndrome coronavirus 2, HeLa-ACE2, 24 h, HeLa-ACE2 cells, SARS-CoV-2 infection, 24 h, read-out: EC50, uM (Hela)

Question: How did the EC50 (class symbols) turn out when `O=C(Nc1ccccc1F)C(=O)N1C[C@@H]2CCC[C@@H]2[C@H]1C(=O)N[C@@H](C[C@@H]1CCNC1=O)C(=O)COC(F)(F)F` [Compound 256, (1S,3aR,6aS)-2-(2-((2-fluorophenyl)amino)-2-oxoacetyl)-N—((S)-3-oxo-1-((S)-2-oxopyrrolidin-3-yl)-4-(trifluoromethoxy)butan-2-yl)octahydrocyclopenta[c]pyrrole-1-carboxamide] was run?
Answer: < 0.05 µM

Question: For `COc1ccc(F)cc1NC(=O)C(=O)N[C@@H](CC(C)C)C(=O)N[C@@H](C[C@@H]1CCNC1=O)C(=O)COc1c(F)c(F)cc(F)c1F` [Compound 79, N1-(5-fluoro-2-methoxyphenyl)-N2-((S)-4-methyl-1-oxo-1-(((S)-3-oxo-1-((S)-2-oxopyrrolidin-3-yl)-4-(2,3,5,6-tetrafluorophenoxy)butan-2-yl)amino)pentan-2-yl)oxalamide], which EC50 (class symbols) is on record?
Answer: 0.05 to 0.2 µM

Question: For `CN[C@H](CC(C)C)C(=O)N1CC2(CC2)C[C@H]1C(=O)N[C@@H](C[C@@H]1CCNC1=O)C(=O)COC(F)(F)F` [Compound 660, (S)-5-(methyl-D-leucyl)-N-((S)-3-oxo-1-((S)-2-oxopyrrolidin-3-yl)-4-(trifluoromethoxy)butan-2-yl)-5-azaspiro[2.4]heptane-6-carboxamide], which EC50 is on record?
Answer: 0.05 to 0.2 µM

Question: How did the EC50 (class symbols) turn out when `CC(C)C[C@H](NC(=O)C(=O)NC1CCCC(F)(F)C1)C(=O)N[C@@H](C[C@@H]1CCNC1=O)C(=O)COc1c(F)c(F)cc(F)c1F` (stereo partly drawn) [Compound 94, Nl-(3,3-difluorocyclohexyl)-N2-((S)-4-methyl-1-oxo-1-(((S)-3-oxo-1-((S)-2-oxopyrrolidin-3-yl)-4-(2,3,5,6-tetrafluorophenoxy)butan-2-yl)amino)pentan-2-yl)oxalamide] was run?
Answer: 0.05 to 0.2 µM

Question: `CC1(C)[C@@H]2[C@@H](C(=O)N[C@@H](C[C@@H]3CCNC3=O)C(=O)COC(F)(F)F)N(C(=O)[C@@H](O)CC3CC3)C[C@@H]21` [Compound 394, (1R,2S,5S)-3-((S)-3-cyclopropyl-2-hydroxypropanoyl)-6,6-dimethyl-N-((S)-3-oxo-1-((S)-2-oxopyrrolidin-3-yl)-4-(trifluoromethoxy)butan-2-yl)-3-azabicyclo[3.1.0] hexane-2-carboxamide] was tested. Which EC50 (class symbols) did it give?
Answer: < 0.05 µM

Question: `CC(C)(C)NC(=O)C(=O)N1C[C@H]2C[C@]1(C(=O)N[C@@H](C[C@@H]1CCNC1=O)C(=O)COC(F)(F)F)C2` [Compound 560, (1s,4R)-2-(2-(tert-butylamino)-2-oxoacetyl)-N-((S)-3-oxo-1-((S)-2-oxopyrrolidin-3-yl)-4-(trifluoromethoxy)butan-2-yl)-2-azabicyclo-[2.1.1]hexane-1-carboxamide] was tested. Which EC50 (given as bound) did it give?
Answer: > 1 µM

Question: `C[C@@](O)(C(=O)N1CC2(CC2)C[C@H]1C(=O)N[C@@H](C[C@@H]1CCNC1=O)C(=O)COC(F)(F)F)c1ccccc1` [Compound 364, (S)-5-((S)-2-hydroxy-2-phenylpropanoyl)-N-((S)-3-oxo-1-((S)-2-oxopyrrolidin-3-yl)-4-(trifluoromethoxy)butan-2-yl)-5-azaspiro[2.4]-heptane-6-carboxamide] was tested. Which EC50 (class symbols) did it give?
Answer: < 0.05 µM

Question: For `CC(C)(C)NC(=O)C(=O)N1CC2(CCC2)CC1C(=O)N[C@@H](C[C@@H]1CCNC1=O)C(=O)COC(F)(F)F` (stereo partly drawn) [Compound 511, 6-(2-(tert-butylamino)-2-oxoacetyl)-N-((S)-3-oxo-1-((S)-2-oxopyrrolidin-3-yl)-4-(trifluoromethoxy)butan-2-yl)-6-azaspiro[3.4]-octane-7-carboxamide], which EC50 is on record?
Answer: 0.05 to 0.2 µM

Question: With `O=C(Nc1ccccc1Cl)C(=O)NC(CC1CCOCC1)C(=O)N[C@@H](C[C@@H]1CCNC1=O)C(=O)COc1c(F)c(F)cc(F)c1F` (stereo partly drawn) [Compound 134, N1-(2-chlorophenyl)-N2-(1-oxo-1-(((S)-3-oxo-1-((S)-2-oxopyrrolidin-3-yl)-4-(2,3,5,6-tetrafluorophenoxy)butan-2-yl)amino)-3-(tetrahydro-2H-pyran-4-yl)propan-2-yl)oxalamide] as the molecule, how does the EC50 (class symbols) read?
Answer: < 0.05 µM

Question: How did the EC50 (class symbols) turn out when `O=C1NCC[C@H]1C[C@H](NC(=O)[C@@H]1CC2(CC2)CN1C(=O)C(O)CC(F)(F)F)C(=O)COC(F)(F)F` (stereo partly drawn) [Compound 390, (6S)-N-((S)-3-oxo-1-((S)-2-oxopyrrolidin-3-yl)-4-(trifluoromethoxy)butan-2-yl)-5-(4,4,4-trifluoro-2-hydroxybutanoyl)-5-azaspiro[2.4]heptane-6-carboxamide] was run?
Answer: 0.05 to 0.2 µM

Question: Which EC50 (class symbols) does the source give for `CC(C)C[C@H](NC(=O)C12CC(C(F)(F)F)(CO1)C2)C(=O)N[C@@H](C[C@@H]1CCNC1=O)C(=O)COC(F)(F)F` [Compound 316, N-((S)-4-methyl-1-oxo-1-(((S)-3-oxo-1-((S)-2-oxopyrrolidin-3-yl)-4-(trifluoromethoxy)butan-2-yl)amino)pentan-2-yl)-4-(trifluoromethyl)-2-oxabicyclo-[2.1.1]hexane-1-carboxamide] here?
Answer: < 0.05 µM

Question: `CC(C)CCC(=O)N1CC2(CC2)C[C@H]1C(=O)N[C@@H](C[C@@H]1CCNC1=O)C(=O)COC(F)(F)F` [Compound 429, (S)-5-(4-methylpentanoyl)-N—((S)-3-oxo-1-((S)-2-oxopyrrolidin-3-yl)-4-(trifluoromethoxy)butan-2-yl)-5-azaspiro[2.4]heptane-6-carboxamide] was tested. Which EC50 did it give?
Answer: < 0.05 µM

Question: How did the EC50 (class symbols) turn out when `Cc1ccc(C2(NC(=O)C(=O)N[C@@H](CC(C)C)C(=O)N[C@@H](C[C@@H]3CCNC3=O)C(=O)COC(F)(F)F)CC2)cc1` [Compound 186, N1-((S)-4-methyl-1-oxo-1-(((S)-3-oxo-1-((S)-2-oxopyrrolidin-3-yl)-4-(trifluoromethoxy)butan-2-yl)amino)pentan-2-yl)-N2-(l-(p-tyolyl)-cyclopropyl)oxalamide] was run?
Answer: < 0.05 µM

Question: How did the EC50 (cells given as a bound) turn out when `CC(C)C[C@H](NC(=O)C(=O)Nc1ccccc1)C(=O)N[C@@H](C[C@@H]1CCNC1=O)C(O)COc1c(F)c(F)cc(F)c1F` (stereo partly drawn) [Compound 49, N1-((2S)-1-(((2S)-3-hydroxy-1-((S)-2-oxopyrrolidin-3-yl)-4-(2,3,5,6-tetrafluorophenoxy)butan-2-yl)amino)-4-methyl-1-oxopentan-2-yl)-N2-phenyloxalamide] was run?
Answer: > 1 µM

Question: Which EC50 (class symbols) does the source give for `CC(C)C[C@H](NC(=O)[C@H](O)C(F)(F)F)C(=O)N[C@@H](C[C@@H]1CCNC1=O)C(=O)COC(F)(F)F` [Compound 384, (S)-4-methyl-N-((S)-3-oxo-1-((S)-2-oxopyrrolidin-3-yl)-4-(trifluoromethoxy)butan-2-yl)-2-((S)-3,3,3-trifluoro-2-hydroxypropanamido)-pentanamide] here?
Answer: 0.05 to 0.2 µM

Question: Which EC50 does the source give for `O=C1NCC[C@H]1C[C@H](NC(=O)[C@@H]1[C@H]2CCC[C@H]2CN1C(=O)c1noc2ccc(F)cc12)C(=O)COC(F)(F)F` [Compound 614, (1S,3aR,6aS)-2-(5-fluorobenzo[d]isoxazole-3-carbonyl)-N-((S)-3-oxo-1-((S)-2-oxopyrrolidin-3-yl)-4-(trifluoromethoxy)butan-2-yl)octahydrocyclopenta[c]pyrrole-1-carboxamide] here?
Answer: < 0.05 µM

Question: Which EC50 (class symbols) does the source give for `CC1(NC(=O)C(=O)N2C[C@@H]3CCC[C@@H]3[C@H]2C(=O)N[C@@H](C[C@@H]2CCNC2=O)C(=O)COC(F)(F)F)CC1` [Compound 270, (1S,3aR,6aS)-2-(2-((l-methylcyclopropyl)-amino)-2-oxoacetyl)-N-((S)-3-oxo-1-((S)-2-oxopyrrolidin-3-yl)-4-(trifluoromethoxy)butan-2-yl)octahydrocyclo-penta[c]pyrrole-1-carboxamide] here?
Answer: 0.05 to 0.2 µM
